# Source: patent US7511284B2, “Photostabilisation of fluorescent dyes” (International University Bremen GmbH, priority 2004, dated 2009)
# Marks after values point to notes of the source that are not given here.
# Tests used:
# [1] = Photostabilisation of fluorescent dyes by cucurbiturils (preliminary tests, tests carried out hitherto); settings: for photostabilisation of conventional fluorescent dyes by the cucurbituril: preliminary tests, in particular xanthene and cyanine fluorescent dyes; for photostabilisation by the use of a cucurbituril: in particular cucurbit[7]uril
# [2] = Decrease in photon count rate in fluorescence correlation spectroscopy (FCS) on a confocal microscope; format: physicochemical; settings: for relative photon count rate: irradiation for 2000 seconds; for count rate present: after 30 minutes irradiation, 10 nM dye
# Procedure: Aqueous solutions of fluorescent dyes (10 nM) with and without cucurbit[7]uril (1 mM) were also studied by fluorescence correlation spectroscopy (FCS) on a confocal microscope (Carl Zeiss LSM 510 Confocor 2), which is used for several applications relevant for biology, biochemistry and spectroscopy. 400 μl of each solution were transferred to an 8-chamber cover glass system and irradiated with the light of a CW laser. The decrease in the count rate, which is directly proportional to the mean fluorescence intensity of the sample, was measured against the irradiation time. […] Considerable photostabilisation can again be seen, because without cucurbit[7]uril less than 30%, but with cucurbit[7]uril still more than 90% of the count rate is present after 30 minutes. The observed photostabilisation factors are contained in Table 2 (footnotes b, c, d).
# The photon count rate in samples containing cucurbit[7]uril fell during irradiation for 2000 seconds only to about 95%, while the […] of the cucurbit[7]uril-free sample fell to about 25% of the initial value in the same time.
# [3] = Fluorescence quantum yield and brightness with and without CB7; format: physicochemical; parameters: ε × φf (brightness): unit not given beside the values
# [4] = Absorption and fluorescence maxima with and without CB7; format: physicochemical; parameters: unit not given here
# Description: Addition of cucurbiturils leads to the formation of complexes with fluorescent dyes, which have changed photophysical properties, see examples in Table 3.
# [5] = Decrease of fluorescence intensity of dye solutions stored in daylight (ambient light); format: physicochemical; settings: for Stabilisation factor: with 1 mM CB7, daylight; for fluorescence intensity after exposure to daylight: 300 hours
# Procedure: As an alternative, the decrease in the fluorescence intensity of the above-described solutions was determined by observing their fluorescence (Cary Eclipse Fluorometer, Varian) when the solutions were stored in daylight (ambient light). The fluorescence intensity remained unchanged over the observation period for the solution containing cucurbituril, whereas it felt markedly for the cucurbituril-free solution (FIG. 3), with approximate half-lives of about 80 to 390 hours, depending on the sample vessel.
# [6] = Photobleaching of aqueous dye solution under 532-nm Nd-YAG laser irradiation, monitored by UV-Vis absorption
# Procedure: The addition of cucurbituril (mixture of a plurality of cucurbiturils, wherein cucurbit[7]uril (formula (D), also known as CB7) was the predominant species according to mass spectrometry, with cucurbit[5]uril as a detectable impurity), concentration of cucurbit[7]uril 1-2 mM, mixture prepared as described in C. […] The photostabilisation of the fluorescent dye stabilised by cucurbituril (CB7) was monitored by the characteristic visible absorption band with a Varian Cary 50 UV-VIS spectrophotometer, based on a cucurbituril-free, optically adapted (at 532 nm) solution of the fluorescent dye. The UV-Vis spectra were recorded at different irradiation times (FIG. 1), and the decreasing absorption (A) at 532 nm was plotted against the pertinent function log([10^A0−1]/[10^A−1]). […] The concentrations with and without cucurbit[7]uril are not identical, but were so chosen that the absorbance at 532 nm was identical at the start of irradiation. The concentration of rhodamine 6G was lower in samples containing cucurbit[7]uril than in samples without cucurbit[7]uril owing to a higher extinction coefficient.
# The quantum yield of the photobleaching was determined by means of the initial linear region of the graph (FIG. 2) of the ratio of the gradients S(D)/S(D+CB7)=εDφb(D)/[εD+CB7φb(D+CB7)], wherein εD+CB7 and εD are the extinction coefficient of the dye (D) with and without CB7 at the irradiation wavelength of 532 nm.
# The chosen stabilisation factor was the ratio of the quantum yields of the photobleaching in the absence and presence of CB7.
photostabilisation by the use of a cucurbituril [1],Molecule,ε × φf (brightness) ([3]; with 1 mM CB7),φf ([3]; with 1 mM CB7),ε × φf (brightness) ([3]; without CB7),φf ([3]; without CB7),λabs max ([4]; with 1 mM CB7),λem max ([4]; with 1 mM CB7),λabs max ([4]; without CB7),λem max ([4]; without CB7),further results
–,O=C1N2CN3C(=O)N4CN5C(=O)N6CN7C(=O)N8CN9C(=O)N%10CN1C1C2N2CN%11C(=O)N(CN%12C(=O)N(CN%13C(=O)N(CN%14C(=O)N(CN1C2=O)C%10C%149)[C@H]8[C@H]7%13)[C@H]6[C@H]5%12)C4C3%11 (some centres unmarked) [cucurbit[5]uril],–,–,–,–,–,–,–,–,photostabilisation of conventional fluorescent dyes by the cucurbituril [1]: best photostabilisation
–,O=C1N2CN3C(=O)N4CN5C(=O)N6CN7C(=O)N8CN9C(=O)N%10CN%11C(=O)N%12CN1C1C2N2CN%13C(=O)N(CN%14C(=O)N(CN%15C(=O)N(CN%16C(=O)N(CN%17C(=O)N(CN1C2=O)C%12C%11%17)C%10C9%16)C8C7%15)C6C5%14)C4C3%13 (centres unmarked) [cucurbit[6]uril],–,–,–,–,–,–,–,–,photostabilisation of conventional fluorescent dyes by the cucurbituril [1]: best photostabilisation
–,O=C1OC2(c3ccc(O)cc3Oc3cc(O)ccc32)c2ccccc21 [fluorescein],–,–,–,–,–,–,–,–,improvement in photostability by cucurbiturils according to formulae (B) to (E) ([1]; anionic fluorescent dye): only a slight or no improvement
–,"Cc1cc(=O)oc2c3c4c(cc12)CCCN4CCC3 [Coumarin-102, coumarin 102]",17807,0.754,14388,0.66,404.6,476.0,392.6,489.0,absorbance (extinction coefficient) and fluorescence quantum yield (intensity) in a complex with cucurbituril versus without [3]: greater
Particularly good photostabilisation,"CCN=c1cc2oc3cc(NCC)c(C)cc3c(-c3ccccc3C(=O)OCC)c-2cc1C.Cl [Rhodamine 6G, rhodamine 6G]",81594,0.883,71218,0.89,534.6,555.0,526.0,552.0,"Stabilisation factor ([5]; quartz cuvette): >500*; Stabilisation factor ([5]; screw-top glass bottle): >5000*; fluorescence intensity after exposure to daylight ([5]; with cucurbit[7]uril in glass bottles): hardly decreases at all; fluorescence intensity after exposure to daylight ([5]; without cucurbit[7]uril, glass bottle): 60 % of the original value; fluorescence intensity after exposure to daylight ([5]; without cucurbit[7]uril, quartz cuvettes): 90 % of the original value; Stabilisation factor ([6]; 1 mM CB7, 3 μM dye solutions, 532-nm laser light (1.3 W, 10 Hz) of a Nd-YAG laser): 30.0^a; Stabilisation factor ([6]; with 1 mM CB7, high laser power (2.1 W), 532 nm): 7.5*; Stabilisation factor ([6]; with 1 mM CB7, low laser power (1.3 W), 532 nm): 30*; number of absorption cycles before a molecule decomposes ([6]; with addition of cucurbit[7]uril (CB7 solution)): 22 million; number of absorption cycles before a molecule decomposes ([6]; without cucurbit[7]uril): 0.8 million"
–,"CCN1C(=CC=CC=CC2=[N+](CC)c3ccc(S(=O)(=O)[O-])cc3C2(C)C)C(C)(C)c2cc(S(=O)(=O)O)ccc21 [Cyanine 5, cyanine 5]",51000,0.456,37260,0.27,642.2,657.0,642.0,660.0,absorbance (extinction coefficient) and fluorescence quantum yield (intensity) in a complex with cucurbituril versus without [3]: greater
Particularly good photostabilisation,Cc1c(C)c2cc3c4c(c2oc1=O)CCCN4CCC3 [coumarin 39],–,–,–,–,–,–,–,–,–
Particularly good photostabilisation,rhodamine 123,24097,0.362,57470,0.83,502.6,532.0,500.0,525.0,number of absorption cycles before a molecule decomposes ([6]; without cucurbit[7]uril): 1.6 million
–,O=C1N2CN3C(=O)N4CN5C(=O)N6CN7C(=O)N8CN9C(=O)N%10CN%11C(=O)N%12CN%13C(=O)N%14CN%15C(=O)N%16CN1C1C2N2CN%17C(=O)N(CN%18C(=O)N(CN%19C(=O)N(CN%20C(=O)N(CN%21C(=O)N(CN%22C(=O)N(CN%23C(=O)N(CN1C2=O)C%16C%15%23)C%14C%13%22)C%12C%11%21)C%10C9%20)C8C7%19)C6C5%18)C4C3%17 (centres unmarked) [cucurbit[8]uril],–,–,–,–,–,–,–,–,photostabilisation of conventional fluorescent dyes by the cucurbituril [1]: best photostabilisation
–,"CCN1C(=CC=CC2=[N+](CC)c3ccc(S(=O)(=O)[O-])cc3C2(C)C)C(C)(C)c2cc(S(=O)(=O)O)ccc21 [Cyanine 3, cyanine 3]",11502,0.108,18000,0.15,558.6,571.0,544.6,560.0,–

Molecule,photostabilisation by the use of a cucurbituril [1],ε × φf (brightness) ([3]; with 1 mM CB7),φf ([3]; with 1 mM CB7),ε × φf (brightness) ([3]; without CB7),φf ([3]; without CB7),λabs max ([4]; with 1 mM CB7),λem max ([4]; with 1 mM CB7),λabs max ([4]; without CB7),λem max ([4]; without CB7),further results
"CN(C)c1ccc2c(-c3ccccc3C(=O)[O-])c3ccc(N(C)C)cc3[o+]c2c1 [Tetramethylrhodamine, tetramethylrhodamine]",Particularly good photostabilisation,20277,0.271,17553,0.20,558.6,582.0,552.6,577.0,"Stabilisation factor ([2]; 1 mM CB7, 10 nM dye solutions, 514-nm laser light (30 mW, cw), FCS, after 35 minutes, via photon count rate): 4.3^b; relative photon count rate ([2]; cucurbit[7]uril-free sample): about 25 % of the initial value; count rate present ([2]; with cucurbit[7]uril (1 mM)): more than 90%; relative photon count rate ([2]; with cucurbit[7]uril): about 95 % of the initial value; count rate present ([2]; without cucurbit[7]uril): less than 30%"
